{
  "source": "patent US10383843B2",
  "about": "“Use of total coumarins of cnidium fruit in preparing medicaments for treating psoriasis” (priority 2013, dated 2019)",
  "key": {"[1]": {"test_system": "passive cutaneous anaphylaxis (PCA) of rats", "test": "Inhibition of passive cutaneous anaphylaxis (PCA) of rats", "type": "in vivo", "details": "15 mg/kg by gavage, 3 days", "protocol": "Hair on the back of 40 SD rats, 180 g±10 was shaved off. 0.2 ml of a diluted rat-antiserum (1:10) was hypodermically injected into each rat through two places on the back, 0.1 ml for each place. After being injected, the rats were di vided randomly into four groups, which were administered by gavage with 75 mg/kg of total coumarins, 150 mg/kg of total coumarins, 15 mg/kg of anthralin and 15 ml/kg of distilled water for 3 days, once per day. After the injection with the rat-antiserum 48 hours, 1 ml of 0.5% evans blue, […], was intravenously injected into the rats through the caudal vein. The rats were killed in 20 minutes. A piece of skin with blue speckles was taken out from the back, and immersed in 5 ml solution of acetone/physiological saline (acetone:physiological saline=7-3 v/v) for 24 hs. After centrifugation; the supernatant was taken for measuring the optical density (OD) at 590 nm. Inhibition rate was obtained in accordance with the following equation. […] Inhibition (%)=[OD(control)−OD(drug)]×100%/OD(control)"}, "vaginal epithelial cells": {"test_system": "vaginal epithelial cells", "test": "Effect on mitosis of vaginal epithelial cells in mice", "type": "in vivo", "details": "15 mg/kg by gavage, once a day for 3 days; mitoses per 100 fundus cells", "protocol": "60 female NIH mice of 27 g±2 g were selected. After being intraperitoneally injected with diethylstilbesrolum for 3 days continuously, 0.2 mg/day for each animal, all the mice were left in estrum interval. From the 4th day, the mice were randomly divided into four groups, 15 mice each. The mice of the four groups were administrated for three days by gavage with 150 mg/kg of total coumarins, 75 mg/kg of total coumarins, 15 mg/kg of anthralin and 15 ml/kg of physiological saline, respectively, once one day. The last administration was carried out at 8:00 am in order to avoid the interference of various administration rhythms between day and night in the mice to the test result. At 9:00 am, 2 mg/kg of colchicine was injected to the mice to make the mitosis of vaginal epithelial cells stopped at the middle cycle of M phase.\nThe mice were killed at 2 pm. A sample from the vagina of the animal was taken out and fixed in a 10% formaldehyde solution. A slice of tissue was observed under an optical microscope. The number of mitosis per 300 fundus cells was counted to obtain an average number of mitosis among 100 fundus cells, which was regarded as the index of mitosis of vaginal epithelial cells."}},
  "data": [
    {"smiles": "O=C1c2c(O)cccc2Cc2cccc(O)c21", "note": "[Anthralin, anthralin]", "values": [
      {"measurement": "OD", "setting": "[1]; OD at 590 nm of evans blue skin extract", "value": "0.043 ± 0.25"},
      {"measurement": "inhibition at 15 mg/kg", "setting": "[1]; Rattus norvegicus, po, 72 h", "value": 51.7, "unit": "%"},
      {"measurement": "Index of Mitosis %", "setting": "vaginal epithelial cells", "value": "13.4 ± 2.1", "unit": "%"}
    ]}
  ]
}
